From patent US10328003B2, “Solubilizing agents for active or functional organic compounds” (ISP INVESTMENTS LLC, priority 2015, dated 2019)
Each block holds one compound with its values, some of them ahead of it.

Columns and labels:
[1] = Description: (§1) Different samples of the current solubilizing compound cycloalkyl toluate was combined with available sunscreens Escalol S, avobenzone and oxybenzone at 25° C. […] Solubility was checked for cyclohexyl ester in various sunscreen actives such as bemotrizinol, ethylhexyl triazone, avobenzone & benzophenone-3 in comparison to phenethyl benzoate.
[2] = Comparison of solubilizers combined with sunscreens: clear solution or crystal formation; assay type: physicochemical; settings: 25° C., FIG. 6
Description: as §1

Compound: Cc1cccc(C(=O)OC2CCCCC2)c1 [Cyclohexyl 3-Toluate]
Solubility of Escalol S at 25° C. [1]: 35%

Compound: Cc1ccccc1C(=O)OC1CCCCC1 [Cyclohexyl 2-Toluate]
Solubility of Escalol S at 25° C. [1]: 37%

Compound: Cc1ccc(C(=O)OC2CCCCC2)cc1 [Cyclohexyl 4-Toluate]
Solubility of Escalol S at 25° C. [1]: 36%

Compound: Cyclohexyl Toluate
Solubility @ 25° C. Avobenzone [1]: 25
Solubility @ 25° C. Escalol S [1]: 36
Solubility @ 25° C. Oxybenzone [1]: 32
Solubility of Avobenzone at 25° C. [1]: 25%
Solubility of Escalol S at 25° C. [1]: 36%
Solubility percentages of sunscreen active in the solubilizer [1]: 22-33%

Other lines, results leading:

Solubility of Escalol S at 25° C. [1]: 30%
Compound: Cc1cccc(C(=O)OCC2CCCCC2)c1 [Cyclohexylmethanol 3-Toluate]

Solubility @ 25° C. Avobenzone [1]: 20
Solubility @ 25° C. Escalol S [1]: 22
Solubility @ 25° C. Oxybenzone [1]: 34
Solution appearance when combined with Escalol S, avobenzone and oxybenzone [2]: crystal formations
Compound: O=C(OCCc1ccccc1)c1ccccc1 [Phenethyl benzoate, 2-phenylethyl benzoate, reference compound]

Solubility of Escalol S at 25° C. [1]: 34%
Compound: Cc1cccc(C(=O)OC2CCCC2)c1 [Cyclopentyl 3-Toluate]
